Assay results from US9040568B2, “Pharmaceutical compositions for the treatment of pain” (AbbVie Inc., priority 2009, dated 2015).

Tests used:
Type in all cases: in vivo, rat
[1] = test system: post-operative pain (skin incision of the hind paw); assay: Incision model of postoperative pain (mechanical allodynia, von Frey)
Procedure: Paw incision was performed under isoflurane (2-3%) anesthesia and followed procedures previously described (Brennan et al., 1996). Briefly, the plantar aspect of the left hindpaw was placed through a hole in a sterile plastic drape. A 1-cm longitudinal incision was made through the skin and fascia, starting 0.5 cm from the proximal edge of the heel and extending towards the toes, the plantar muscle was elevated and injured longitudinally leaving the muscle origin and insertion points intact. After hemostasis with gentle pressure, the skin was apposed with 2 mattress sutures of 5-0 nylon. Mechanical allodynia was measured using calibrated von Frey filaments (Stoelting, Wood Dale, Ill.) as previously described (Chaplan et al., 1994) in all animals 2 h following surgery. Rats were placed into inverted individual plastic containers (20×12.5×20 cm) on top of a suspended wire mesh grid, and acclimated to the test chambers for 20 min. The von Frey filaments were presented perpendicularly to the plantar surface pointing towards the medial side of the incision (Brennan et al., 1996), and then held in this position for approximately 8 s with enough force to cause a slight bend in the filament. Positive responses included an abrupt withdrawal of the hind paw from the stimulus, or flinching behavior immediately following removal of the stimulus. A 50% paw withdrawal threshold (PWT) was determined using an up-down procedure (Dixon, 1980). Mechanical allodynia was assessed 30 min following i.p. compound administration.

[2] = test system: nerve injury induced mechanical allodynia; assay: Chung model of neuropathic pain (L5-L6 spinal nerve ligation, tactile allodynia, von Frey)
Procedure: To assess whether α4β2 PAM can increase antinociceptive responses of agonists in vivo, the following study was conducted. The materials and methods used to accomplish the study follow.
Male Sprague-Dawley rats (Charles River, Wilmington, Mass.) weighing 120-150 grams at time of surgery were utilized. These animals were group housed in AAALAC approved facilities at Abbott Laboratories in a temperature-regulated environment with lights on between 0700 and 2000 hours. Food and water was available ad libitum except during testing. All animal handling and experimental protocols were approved by an institutional animal care and use committee (IACUC). All experiments were performed during the light cycle.
5[(2R)-Azetidin-2-ylmethoxy]-2-chloropyridine (Compound A, 1-100 nmol/kg) and 3-(3-pyridin-3-yl)-1,2,4-oxadiazol-5-yl)benzonitrile (α4β2 PAM Compound 1, 1-35 μmol/kg, i.p.) was used. Compound A and D was prepared in saline and injected in solution in a volume of 2 ml/kg body weight 30 minutes before behavioral evaluation. Compound 1,3-(3-(pyridin-3-yl)-1,2,4-oxadiazol-5-yl)benzonitrile, was prepared in 30% hydroxybetacyclodextrin and injected in solution in a volume of 4 ml/kg body weight immediately before Compound A. For studies with Compound D, the doses tested ranged from 0.3-30 μmol/kg i.p.
To produce neuropathic pain, tight ligation of the L5-L6 spinal nerves was performed. As previously described in detail by Kim and Chung (Kim S H and Chung J M (1992), Pain 50: 355), following sterilization procedures, a 1.5 cm incision was made dorsal to the lumbosacral plexus. The paraspinal muscles (left side) were separated from the spinous processes, the L5 and L6 spinal nerves isolated, and tightly ligated with 3-0 silk thread. Following hemostasis, the wound was sutured and coated with antibiotic ointment. The rats were allowed to recover and then placed in a cage with soft bedding for 7-14 days before behavioral testing for mechanical allodynia.
Tactile allodynia was measured using calibrated (force; g) von Frey filaments (Stoelting, Wood Dale, Ill.). Briefly, rats were placed into individual plexiglass containers and allowed to acclimate for 15-20 minutes before testing. Withdrawal threshold was determined by increasing and decreasing stimulus intensity and estimated using a Dixon non-parametric test (Chaplan et al., 1994; Chaplan S R, Bach F W, Pogrel J W, Chung J M and Yaksh T L (1994) J Neurosci Methods 53:55-63). Only rats with threshold scores<4.5 g were considered allodynic and utilized in further testing. A percent of maximal possible effect (% M.P.E.) of the tested compounds was calculated according to the formula: ([post-drug threshold]-[baseline threshold])/([maximum threshold]-[baseline threshold])×100%, where maximum threshold was equal to 15 g.
Analysis of the in vivo data was carried out using analysis of variance. Where appropriate, Bonferroni's Multiple Comparison Test was used for post-hoc analysis. The level of significance was set at p less than 0.05. Data are presented as mean±S.E.M.

[3] = test system: MIA-induced osteoarthritis pain; assay: Monoiodoacetate-induced osteoarthritis (MIA-OA) pain model, compressive grip force
Procedure: Under light isoflurane (2-3%) anesthesia, MIA (3 mg) was unilateral intra-articularly injected into right hind knee joint in a volume of 50 μl as previously described (Chandran et al., 2009). Compressive grip force (CGF) was determined 20 days following MIA injection by recording the maximum compressive force exerted on the hind limb strain gauge setup, using a commercially available grip force measurement system (Columbus Instruments, Columbus, Ohio). In this assay, each rat was gently restrained and the hind paw was allowed to grasp the wire mesh frame (10×12 cm) attached to the strain gauge. The animal was then moved in a rostral-to-caudal direction until the grip was broken, and CGF reading expressed as g was recorded. Each rat was sequentially tested twice at approximately 2-3 min intervals to obtain an average raw CGF. To avoid confounding factor of body weight, CGF was converted into CGFbody following the formula: g (CGF)÷kg (body weight). CGF was assessed 30 min following i.p. compound administration. The vehicle control group was taken as 0%, whereas the age-matched naïve group was described as 100% (normal), the analgesic efficacy was expressed as the percentage return of CGFbody to normalcy vs. the naïve group: [(treatment-vehicle)/(naïve-vehicle)]×100%. Experiments were performed in animals 20 days following MIA knee joint injection, since this is the time point that maximal reduction of grip force observed in the time-course experiment (Chandran et al., 2009).

[4] = Compound A 10 nmol/kg combined with Compound 1 (3.5 μmol/kg)
[5] = co-administration of Compound 1

## Clc1ccc(OC[C@H]2CCN2)cn1 [Compound A, 5-[(2R)-azetidin-2-ylmethoxy]-2-chloropyridine]
[1]; [4]
  percent reversal of mechanical allodynia: 22±14%
[1]; Compound A 10 nmol/kg in the presence of Compound 1 (3.5 μmol/kg)
  PWT: 5.0 ± 1.9 g
[1]; Compound A 30 nmol/kg combined with Compound 1 (3.5 μmol/kg)
  percent reversal of mechanical allodynia: 54±16%
[1]; Compound A 30 nmol/kg in the presence of Compound 1 (3.5 μmol/kg)
  PWT: 9.2 ± 2.1 g
[1]; Compound A 100 nmol/kg combined with Compound 1 (3.5 μmol/kg)
  percent reversal of mechanical allodynia: 85±10%
[1]; Compound A 100 nmol/kg in the presence of Compound 1 (3.5 μmol/kg)
  PWT: 13.1 ± 1.2 g
[1]; Compound A alone, 100 nmol/kg
  PWT: 6.0 ± 1.0 g
  percent reversal of mechanical allodynia: 25±8%
[1]; Compound A alone, 300 nmol/kg
  PWT: 12.0 ± 1.6 g
  percent reversal of mechanical allodynia: 75±12%
[1]; Rattus norvegicus, Compound A alone, read-out: ED50 (reversal of mechanical allodynia)
  ED50: 0.165 µmol/kg
[1]; [5]
  leftward shift in the DRC of Compound A: 6 fold
[2]; Compound A 1 nmol/kg alone
  efficacy in neuropathic pain: ineffective
[2]; Compound A 1 nmol/kg combined with varying doses of Compound 1
  efficacy in neuropathic pain: dose-dependent increase in efficacy
[2]; Compound A co-administered with Compound 1 (PAM)
  mechanical paw withdrawal threshold (PWT): 12.1 ± 0.5 g
[3]; Compound A 0.3 nmol/kg combined with Compound 1 (3.5 μmol/kg)
  percent return of grip force to normalcy: 29±2%
[3]; Compound A 0.3 nmol/kg/kg in the presence of Compound 1 (3.5 μmol/kg)
  CGFbody: 657 ± 21 g
[3]; Compound A 1 nmol/kg combined with Compound 1 (3.5 μmol/kg)
  percent return of grip force to normalcy: 50±3%
[3]; Compound A 1 nmol/kg/kg in the presence of Compound 1 (3.5 μmol/kg)
  CGFbody: 855 ± 28 g
[3]; Compound A 3 nmol/kg combined with Compound 1 (3.5 μmol/kg)
  percent return of grip force to normalcy: 66±5%
[3]; Compound A 3 nmol/kg/kg in the presence of Compound 1 (3.5 μmol/kg)
  CGFbody: 971 ± 35 g
[3]; [4]
  percent return of grip force to normalcy: 92±6%
[3]; Compound A 10 nmol/kg/kg in the presence of Compound 1 (3.5 μmol/kg)
  CGFbody: 1243 ± 56 g
[3]; Compound A alone, 1 nmol/kg
  CGFbody: 575 ± 37 g
  percent return of grip force to normalcy: 20±4%
[3]; Compound A alone, 3 nmol/kg
  CGFbody: 717 ± 64 g
  percent return of grip force to normalcy: 35±6%
[3]; Compound A alone, 10 nmol/kg
  CGFbody: 992 ± 45 g
  percent return of grip force to normalcy: 65±5%
[3]; Compound A alone, 30 nmol/kg
  CGFbody: 1234 ± 37 g
  percent return of grip force to normalcy: 90±4%
[3]; Rattus norvegicus, Compound A alone, read-out: ED50 (return of grip force to normalcy)
  ED50: 0.0046 µmol/kg
[3]; [5]
  leftward shift in the DRC of Compound A: 5 fold

## N#Cc1cccc(-c2nc(-c3cccnc3)no2)c1 [Example 1, 3-(3-(pyridin-3-yl)-1,2,4-oxadiazol-5-yl)benzonitrile]
[1]; Compound 1 alone, up to 35 μmol/kg, i.p.
  alteration of PWT of the injured paw: produced no alteration of PWT
[2]; Compound 1 3.5 μmol/kg with various doses of Compound A
  effect on the dose response curve of Compound A: left-shifting the dose response curve of Compound A
[2]; administered alone
  efficacy in neuropathic pain: ineffective
[3]; Compound 1 alone, 3.5 μmol/kg i.p.
  return of grip force normalcy: produced no return of grip force normalcy
